# Laboratory results taken from US20240269139A1, “COMPOUNDS FOR TARGETED PROTEIN DEGRADATION OF KINASES” (DANA-FARBER CANCER INSTITUTE, INC., priority 2020, published 2024).
# “And” between values parts separate entries of the source, which are not always exact repeats. Equal entries are not always repeated. Where two headings read alike, the source gives them in different places.
# Key:
# [1] = target: extended human kinome (kinase-like proteins) (Homo sapiens, UniProt Q16875); test: Whole cell quantitative proteomics: extended kinome hits; conditions: Accession Q16875
# Sequence of extended human kinome (kinase-like proteins) (Homo sapiens, UniProt Q16875) (Q16875 whole entry): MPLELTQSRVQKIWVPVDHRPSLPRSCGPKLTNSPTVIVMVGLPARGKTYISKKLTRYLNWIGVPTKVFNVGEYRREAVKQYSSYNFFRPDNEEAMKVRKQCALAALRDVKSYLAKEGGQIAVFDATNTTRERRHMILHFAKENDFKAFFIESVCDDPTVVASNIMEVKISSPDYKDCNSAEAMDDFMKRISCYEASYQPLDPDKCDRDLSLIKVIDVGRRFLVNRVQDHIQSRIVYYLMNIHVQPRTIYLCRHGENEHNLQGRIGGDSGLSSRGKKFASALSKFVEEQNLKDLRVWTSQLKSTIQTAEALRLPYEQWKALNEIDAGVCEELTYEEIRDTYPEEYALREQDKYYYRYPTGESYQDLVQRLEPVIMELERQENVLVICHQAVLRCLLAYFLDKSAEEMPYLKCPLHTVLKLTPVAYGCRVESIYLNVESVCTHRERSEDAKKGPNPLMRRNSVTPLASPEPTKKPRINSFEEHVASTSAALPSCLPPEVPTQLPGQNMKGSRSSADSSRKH
# [2] = target: T1, extended human kinome (kinase-like proteins) (Homo sapiens, UniProt Q7L8L6); test: as above; conditions: Accession Q7L8L6
# T1 sequence (Q7L8L6 28-764): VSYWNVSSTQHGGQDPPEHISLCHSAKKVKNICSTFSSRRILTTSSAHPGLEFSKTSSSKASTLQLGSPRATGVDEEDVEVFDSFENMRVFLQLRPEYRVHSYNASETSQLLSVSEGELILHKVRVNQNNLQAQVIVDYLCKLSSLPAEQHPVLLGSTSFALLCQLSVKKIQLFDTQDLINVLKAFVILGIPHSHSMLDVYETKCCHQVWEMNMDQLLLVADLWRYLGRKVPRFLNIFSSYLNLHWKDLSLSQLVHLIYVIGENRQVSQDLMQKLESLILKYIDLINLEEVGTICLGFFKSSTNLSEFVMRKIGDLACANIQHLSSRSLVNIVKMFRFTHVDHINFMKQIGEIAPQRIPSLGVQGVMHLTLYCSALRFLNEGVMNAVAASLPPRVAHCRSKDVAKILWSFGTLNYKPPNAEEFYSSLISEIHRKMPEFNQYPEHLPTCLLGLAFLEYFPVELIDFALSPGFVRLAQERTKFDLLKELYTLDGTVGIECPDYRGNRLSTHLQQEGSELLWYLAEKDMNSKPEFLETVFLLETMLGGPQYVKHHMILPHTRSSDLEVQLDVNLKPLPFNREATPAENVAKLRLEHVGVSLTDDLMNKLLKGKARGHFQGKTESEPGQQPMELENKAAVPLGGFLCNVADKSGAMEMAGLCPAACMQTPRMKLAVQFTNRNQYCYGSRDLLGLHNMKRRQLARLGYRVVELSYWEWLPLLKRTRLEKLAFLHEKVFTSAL
# [3] = target: protein kinases (human kinome) (Homo sapiens, UniProt P07947); format: cell-based; conditions: YES1 (P07947)
# Sequence of protein kinases (human kinome) (Homo sapiens, UniProt P07947) (P07947 whole entry): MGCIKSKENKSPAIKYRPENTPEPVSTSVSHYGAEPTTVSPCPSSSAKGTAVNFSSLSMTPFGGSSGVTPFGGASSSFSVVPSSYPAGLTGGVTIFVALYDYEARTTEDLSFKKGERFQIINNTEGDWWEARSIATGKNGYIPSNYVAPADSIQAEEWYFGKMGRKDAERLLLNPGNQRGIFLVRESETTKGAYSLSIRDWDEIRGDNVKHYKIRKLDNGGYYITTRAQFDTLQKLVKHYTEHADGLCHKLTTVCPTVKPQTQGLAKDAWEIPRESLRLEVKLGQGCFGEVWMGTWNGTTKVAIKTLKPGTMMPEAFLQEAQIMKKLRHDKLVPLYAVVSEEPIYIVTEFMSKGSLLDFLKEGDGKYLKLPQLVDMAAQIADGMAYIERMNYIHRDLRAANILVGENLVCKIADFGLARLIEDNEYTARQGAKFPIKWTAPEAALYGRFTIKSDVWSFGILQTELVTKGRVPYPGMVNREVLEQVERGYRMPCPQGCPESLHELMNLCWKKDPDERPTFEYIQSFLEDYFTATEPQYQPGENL
# [4] = target: protein kinases (human kinome) (Homo sapiens, UniProt P42684); format: cell-based; conditions: for logFC: ABL2 (P42684) protein abundance, degrader vs DMSO, down
# Sequence of protein kinases (human kinome) (Homo sapiens, UniProt P42684) (P42684 whole entry): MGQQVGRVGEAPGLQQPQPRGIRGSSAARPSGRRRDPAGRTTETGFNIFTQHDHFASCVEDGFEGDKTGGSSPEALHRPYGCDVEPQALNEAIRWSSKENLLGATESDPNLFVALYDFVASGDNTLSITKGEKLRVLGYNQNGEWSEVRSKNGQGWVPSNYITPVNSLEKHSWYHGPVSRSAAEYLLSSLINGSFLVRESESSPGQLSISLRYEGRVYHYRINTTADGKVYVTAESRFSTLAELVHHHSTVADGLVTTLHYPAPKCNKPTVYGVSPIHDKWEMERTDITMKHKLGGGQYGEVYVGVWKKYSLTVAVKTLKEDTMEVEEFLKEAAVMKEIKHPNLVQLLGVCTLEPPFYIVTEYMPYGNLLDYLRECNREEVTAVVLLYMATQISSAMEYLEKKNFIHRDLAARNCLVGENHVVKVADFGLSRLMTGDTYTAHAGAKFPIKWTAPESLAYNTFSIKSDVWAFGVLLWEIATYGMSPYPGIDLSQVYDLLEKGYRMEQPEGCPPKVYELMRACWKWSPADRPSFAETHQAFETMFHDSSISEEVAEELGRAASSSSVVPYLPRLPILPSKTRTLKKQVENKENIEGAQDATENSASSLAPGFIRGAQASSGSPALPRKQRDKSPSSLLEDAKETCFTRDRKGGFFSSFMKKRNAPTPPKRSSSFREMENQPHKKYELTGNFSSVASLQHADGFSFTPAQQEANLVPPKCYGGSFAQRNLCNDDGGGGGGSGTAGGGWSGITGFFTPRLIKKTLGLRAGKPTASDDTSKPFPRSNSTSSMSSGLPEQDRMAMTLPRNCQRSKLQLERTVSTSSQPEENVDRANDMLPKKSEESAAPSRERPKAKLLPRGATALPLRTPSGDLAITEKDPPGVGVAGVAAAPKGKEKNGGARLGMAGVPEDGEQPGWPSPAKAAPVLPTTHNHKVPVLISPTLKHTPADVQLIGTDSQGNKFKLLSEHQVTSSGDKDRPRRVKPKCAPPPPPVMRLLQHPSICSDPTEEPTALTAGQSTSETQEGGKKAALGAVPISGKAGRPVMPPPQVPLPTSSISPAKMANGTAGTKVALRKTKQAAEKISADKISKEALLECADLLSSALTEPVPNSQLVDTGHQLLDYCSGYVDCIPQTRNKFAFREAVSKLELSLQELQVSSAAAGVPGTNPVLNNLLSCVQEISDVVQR
# [5] = target: protein kinases (human kinome) (Homo sapiens, UniProt Q16539); format: cell-based; conditions: for logFC: MAPK14 (Q16539); for logFC MAPK14: MAPK14, accession Q16539, direction of change down
# Sequence of protein kinases (human kinome) (Homo sapiens, UniProt Q16539) (Q16539 whole entry): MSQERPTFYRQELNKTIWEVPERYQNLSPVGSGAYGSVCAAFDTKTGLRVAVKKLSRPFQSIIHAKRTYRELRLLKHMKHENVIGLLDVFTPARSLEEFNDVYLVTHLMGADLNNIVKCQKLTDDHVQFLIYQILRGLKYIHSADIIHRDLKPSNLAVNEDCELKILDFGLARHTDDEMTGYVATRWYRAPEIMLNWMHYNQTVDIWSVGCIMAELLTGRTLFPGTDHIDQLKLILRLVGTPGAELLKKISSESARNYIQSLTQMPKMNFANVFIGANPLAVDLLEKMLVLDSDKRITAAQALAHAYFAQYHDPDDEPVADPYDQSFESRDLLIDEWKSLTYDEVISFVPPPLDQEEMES
# [6] = target: extended human kinome (kinase-like proteins) (Homo sapiens, UniProt Q9UIJ7); test: Whole cell quantitative proteomics: extended kinome hits
# Sequence of extended human kinome (kinase-like proteins) (Homo sapiens, UniProt Q9UIJ7) (Q9UIJ7 whole entry): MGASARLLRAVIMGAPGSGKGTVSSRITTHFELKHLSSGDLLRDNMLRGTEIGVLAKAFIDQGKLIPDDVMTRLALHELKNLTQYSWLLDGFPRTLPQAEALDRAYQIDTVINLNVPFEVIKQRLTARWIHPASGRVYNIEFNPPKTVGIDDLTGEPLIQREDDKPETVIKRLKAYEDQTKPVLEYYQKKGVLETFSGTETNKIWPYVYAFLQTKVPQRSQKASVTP
# [7] = target: T2, protein kinases (human kinome) (Homo sapiens, UniProt Q9UEE5); format: cell-based; conditions: STK17A Q9UEE5
# T2 sequence (Q9UEE5 1-414): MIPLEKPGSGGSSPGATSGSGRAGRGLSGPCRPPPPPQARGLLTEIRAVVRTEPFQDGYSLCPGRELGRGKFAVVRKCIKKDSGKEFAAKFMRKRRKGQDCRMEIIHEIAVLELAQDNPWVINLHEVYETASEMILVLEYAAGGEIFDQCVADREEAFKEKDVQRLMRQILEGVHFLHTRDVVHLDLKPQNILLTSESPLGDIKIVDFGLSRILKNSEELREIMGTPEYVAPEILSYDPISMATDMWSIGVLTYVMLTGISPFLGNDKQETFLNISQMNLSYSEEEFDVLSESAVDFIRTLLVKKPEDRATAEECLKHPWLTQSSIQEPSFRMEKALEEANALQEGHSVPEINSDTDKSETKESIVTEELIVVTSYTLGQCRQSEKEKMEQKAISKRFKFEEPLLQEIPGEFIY
# [8] = target: T3, protein kinases (human kinome) (Homo sapiens, UniProt O94768); format: cell-based; conditions: for logFC STK17B (O94768): direction down; for logFC: STK17B (O94768)
# T3 sequence (O94768 1-372): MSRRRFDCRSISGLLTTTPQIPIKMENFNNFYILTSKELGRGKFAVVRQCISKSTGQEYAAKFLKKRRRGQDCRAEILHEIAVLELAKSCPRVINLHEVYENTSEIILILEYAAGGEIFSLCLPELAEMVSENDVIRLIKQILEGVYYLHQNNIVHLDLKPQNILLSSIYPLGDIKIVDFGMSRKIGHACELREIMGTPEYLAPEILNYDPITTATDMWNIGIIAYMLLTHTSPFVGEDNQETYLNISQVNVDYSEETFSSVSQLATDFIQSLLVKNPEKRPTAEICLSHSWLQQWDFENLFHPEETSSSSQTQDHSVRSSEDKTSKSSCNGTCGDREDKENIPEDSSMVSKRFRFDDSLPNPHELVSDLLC
compound,measurement,setting,value
C=CCn1c(=O)c2cnc(Nc3ccc(N4CCN(CCCNc5cccc6c5C(=O)N(C5CCC(=O)NC5=O)C6=O)CC4)cc3)nc2n1-c1cccc(C(C)(C)O)n1 (stereo not drawn) [ZNL.02.096],logFC PFKFB3,[1]; experiment wp118,−0.4051
same,logFC FASTKD5,[2]; experiment wp118,−0.4552
Cc1ccc(C(=O)Nc2ccc(CN3CCN(CCCOCCOCCOCCNC(=O)COc4cccc5c4C(=O)N(C4CCC(=O)NC4=O)C5=O)CC3)c(C(F)(F)F)c2)cc1C#Cc1cnc2cccnn12 (stereo not drawn) [SB1.G.187],logFC,[3]; experiment wp172,−0.5324
same,logFC,"[3]; experiment wp172, direction down",−0.5324
same,logFC,[4],−0.6252 and −0.6455
same,logFC ABL2 (P42684),[4]; Experiment wp107,−0.6455
same,logFC ABL2 (P42684),[4]; experiment wp056,−0.6252
same,logFC of MAPK14,"[5]; Accession Q16539, experiment wp172",−0.5198
same,logFC,[5]; experiment wp103,−0.83
same,logFC,[5]; experiment wp107,−0.924
same,logFC,[5]; experiment wp172,−0.5198
same,logFC MAPK14,[5]; experiment wp103,−0.83
same,logFC MAPK14,[5]; experiment wp107,−0.924
same,logFC FASTKD5,[2]; experiment wp056,−0.4238
CN(C)C(=O)c1cc2cnc(Nc3ccc(N4CCN(CCCCNC(=O)COc5cccc6c5C(=O)N(C5CCC(=O)NC5=O)C6=O)CC4)cn3)nc2n1C1CCCC1 (stereo not drawn) [BSJ.04.132],logFC FASTKD5,[2]; experiment wp084,−0.7073
same,logFC AK3 (Q9UIJ7-1),[6]; experiment wp084,−0.6124
O=C(COc1cccc2c1C(=O)N(C1CCC(=O)NC1=O)C2=O)NCCCCCCCC(=O)NC1(c2ccc(-c3nc4ccn5c(=O)[nH]nc5c4cc3-c3ccccc3)cc2)CCC1 (stereo not drawn) [INY.01.140.1],logFC FASTKD5,[2]; experiment wp081,−0.4182
same,logFC AK3 (Q9UIJ7-1),[6]; experiment wp081,−0.4102
CC(C)S(=O)(=O)c1ccccc1Nc1nc(Nc2ccc(N3CCN(CCOCCOCCNC(=O)CNc4cccc5c4C(=O)N(C4CCC(=O)NC4=O)C5=O)CC3)cc2)ncc1Cl (stereo not drawn) [TL12.186],logFC,[3]; experiment wp131,−0.5437
same,logFC,"[3]; experiment wp131, direction down",−0.5437
same,logFC,[4],−0.803
same,logFC ABL2 (P42684),[4]; experiment wp137,−0.803
same,logFC,[7]; experiment wp137,−0.5054
same,logFC STK17A,[7]; experiment wp137,−0.5054
same,logFC PFKFB3,[1]; experiment wp131,−0.5643
same,logFC PFKFB3,[1]; experiment wp137,−0.4067
same,logFC FASTKD5,[2]; experiment wp137,−0.3409
CC(=O)c1c(C)c2cnc(Nc3ccc(N4CCN(CCOCCOCCOCCNC(=O)COc5cccc6c5C(=O)N(C5CCC(=O)NC5=O)C6=O)CC4)cn3)nc2n(C2CCCC2)c1=O (stereo not drawn) [BSJ.03.123],logFC FASTKD5,[2]; experiment wp084,−0.5926
same,logFC AK3 (Q9UIJ7-1),[6]; experiment wp084,−0.4577
CNC(=O)c1ccccc1Nc1cc(Nc2ccc(N3CCN(CCOCCOCCNC(=O)CNc4cccc5c4C(=O)N(C4CCC(=O)NC4=O)C5=O)CC3)cc2OC)ncc1C(F)(F)F (stereo not drawn) [MFH.5.103.1],logFC FASTKD5,[2]; experiment wp076,−0.3493
same,logFC AK3 (Q9UIJ7-1),[6]; experiment wp076,−0.431
CC(C)(C)c1nc(-c2cccc(NS(=O)(=O)c3c(F)cccc3F)c2F)c(-c2ccnc(NCCOCCNC(=O)CCOCCOCCNc3cccc4c3C(=O)N(C3CCC(=O)NC3=O)C4=O)n2)s1 (stereo not drawn) [DD.03.106],logFC FASTKD5,"[2]; experiment wp147, 4 uM",−0.8688
same,logFC AK3 (Q9UIJ7-1),"[6]; experiment wp147, 4 uM",−0.7202
CC(C)S(=O)(=O)c1ccccc1Nc1nc(Nc2ccc(N3CCN(CCOCCNC(=O)CNc4cccc5c4C(=O)N(C4CCC(=O)NC4=O)C5=O)CC3)cc2)ncc1Cl (stereo not drawn) [SK.3.91],logFC STK17B (O94768),"[8]; Experiment wp016, 1 uM",−0.327
same,logFC STK17B (O94768),"[8]; Experiment wp133, 4 hr",−0.545
same,logFC,"[8]; experiment wp016, 1 uM",−0.327
same,logFC,"[8]; experiment wp133, 4 hr",−0.545
same,logFC,"[3]; experiment wp133, 4 hr",−0.5025
same,logFC,"[3]; experiment wp133, 4 hr, direction down",−0.5025
same,logFC,[4]; 1 uM,−1.077
same,logFC,[4]; 2 hr,−0.3453
same,logFC,[4]; 4 hr,−0.8519 and −0.7658
same,logFC ABL2 (P42684),[4]; Experiment wp107,−1.032
same,logFC ABL2 (P42684),[4]; experiment wp016,−0.4963
same,logFC ABL2 (P42684),"[4]; experiment wp016, 1 uM",−1.077
same,logFC ABL2 (P42684),"[4]; experiment wp133, 2 hr",−0.3453
same,logFC ABL2 (P42684),"[4]; experiment wp133, 4 hr",−0.8519
same,logFC ABL2 (P42684),"[4]; experiment wp160, 4 hr",−0.7658
same,logFC,"[7]; experiment wp016, 1 uM",−0.7032
same,logFC STK17A,"[7]; experiment wp016, 1 uM",−0.7032
same,logFC,[7]; experiment wp103,−0.6201
same,logFC STK17A,[7]; experiment wp103,−0.6201
same,logFC,[7]; experiment wp107,−0.6984
same,logFC STK17A,[7]; experiment wp107,−0.6984
same,logFC,"[7]; experiment wp133, 4 hr",−0.5458
same,logFC STK17A,"[7]; experiment wp133, 4 hr",−0.5458
same,logFC,[7]; experiment wp172,−0.3963
same,logFC STK17A,[7]; experiment wp172,−0.3963
same,logFC PFKFB3,"[1]; experiment wp133, 2 hr",−0.3539
same,logFC PFKFB3,"[1]; experiment wp133, 4 hr",−0.6035
same,logFC FASTKD5,"[2]; experiment wp160, 1 hr",−0.8306
same,logFC AK3 (Q9UIJ7-1),"[6]; experiment wp160, 1 hr",−0.7434
CC(C)(C)c1nc(-c2cccc(NS(=O)(=O)c3c(F)cccc3F)c2F)c(-c2ccnc(NCCOCCNC(=O)CCOCCOCCNc3cccc4c3CN(C3CCC(=O)NC3=O)C4=O)n2)s1 (stereo not drawn) [DD.03.107],logFC FASTKD5,"[2]; experiment wp147, 1 uM",−0.5985
same,logFC FASTKD5,"[2]; experiment wp147, 2 uM",−0.6839
same,logFC FASTKD5,"[2]; experiment wp147, 4 uM",−1.268
same,logFC AK3 (Q9UIJ7-1),"[6]; experiment wp147, 1 uM",−0.5265
same,logFC AK3 (Q9UIJ7-1),"[6]; experiment wp147, 2 uM",−0.5607
same,logFC AK3 (Q9UIJ7-1),"[6]; experiment wp147, 4 uM",−1.001
Cc1cnc(Nc2ccc(N3CCN(CCOCCOCCNC(=O)COc4cccc5c4C(=O)N(C4CCC(=O)NC4=O)C5=O)CC3)cc2)nc1Nc1cccc(S(=O)(=O)NC(C)(C)C)c1 (stereo not drawn) [JWG.118],logFC AK3 (Q9UIJ7-1),[6]; experiment wp071,−0.4221
